{
  "source": "patent US20080031951A1",
  "about": "“Compositions and methods for the inhibition of phospholipase A2” (priority 2005, published 2008)",
  "origin": "cited, not measured here",
  "key": {"colitis": {"tested_on": "colitis", "details": "rats, dextran sulfate- and trinitrobenzene sulfonic acid-induced"}, "[1]": {"tested_on": "intestine injury following ischemia and reperfusion", "details": "rats, oral administration"}, "sPLA2 activity": {"tested_on": "sPLA2 activity", "details": "guinea pig model of ARDS"}, "[2]": {"tested_on": "release of thromboxane A2 triggered by exogenously added hGIIA", "details": "guinea pig BAL fluids containing macrophages, eosinophils and epithelial cells"}, "hGIIA [3]": {"target": "T1, hGIIA (Homo sapiens, UniProt P14555)", "T1 sequence (P14555 21-144)": "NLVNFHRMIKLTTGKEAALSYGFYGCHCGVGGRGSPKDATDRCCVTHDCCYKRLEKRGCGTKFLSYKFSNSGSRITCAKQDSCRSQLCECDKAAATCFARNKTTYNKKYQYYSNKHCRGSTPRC", "set-up": "host or cells: transgenic mice overexpressing hGIIA, blood", "details": "intravenous administration, transgenic mice overexpressing hGIIA"}, "hyperalgesia": {"tested_on": "hyperalgesia", "details": "lumbar intrathecal administration, 3 rat models of hyperalgesia"}, "toxoplasmosis": {"tested_on": "toxoplasmosis", "details": "injection, murine toxoplasmosis model"}, "hGIIA [4]": {"target": "T1, hGIIA", "details": "more potent than LY311727"}, "sepsis and organ failure": {"tested_on": "sepsis and organ failure", "details": "humans with sepsis and organ failure"}, "mGV": {"target": "mGV (Mus musculus, UniProt P97391)", "sequence (P97391 21-137)": "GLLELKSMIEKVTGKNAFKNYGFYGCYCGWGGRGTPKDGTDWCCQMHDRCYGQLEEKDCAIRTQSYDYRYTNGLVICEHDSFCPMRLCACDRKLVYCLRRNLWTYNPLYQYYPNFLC"}, "ear edema": {"tested_on": "ear edema", "details": "mice, tetracenoylphorbol-13-acetate induced"}, "mGX": {"target": "mGX (Mus musculus, UniProt Q9QXX3)", "sequence (Q9QXX3 29-151)": "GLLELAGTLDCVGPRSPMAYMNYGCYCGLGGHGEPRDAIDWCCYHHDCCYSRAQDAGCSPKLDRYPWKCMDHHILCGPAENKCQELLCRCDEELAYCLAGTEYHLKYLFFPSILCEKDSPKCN"}, "mGIIE": {"target": "mGIIE (Mus musculus, UniProt Q9QUL3)", "sequence (Q9QUL3 20-142)": "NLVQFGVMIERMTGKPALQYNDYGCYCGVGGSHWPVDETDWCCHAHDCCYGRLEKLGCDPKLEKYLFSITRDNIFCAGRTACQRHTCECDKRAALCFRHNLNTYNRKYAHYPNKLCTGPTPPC"}, "pleurisy": {"tested_on": "pleurisy", "details": "rat, carageenin-induced pleurisy"}, "mGIIA": {"target": "mGIIA (Mus musculus, UniProt P31482)", "sequence (P31482 22-146)": "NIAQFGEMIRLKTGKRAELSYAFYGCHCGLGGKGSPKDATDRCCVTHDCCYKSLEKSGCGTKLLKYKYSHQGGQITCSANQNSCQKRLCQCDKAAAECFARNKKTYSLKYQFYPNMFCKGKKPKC"}, "mGIID": {"target": "mGIID (Mus musculus, UniProt Q9WVF6)", "sequence (Q9WVF6 20-144)": "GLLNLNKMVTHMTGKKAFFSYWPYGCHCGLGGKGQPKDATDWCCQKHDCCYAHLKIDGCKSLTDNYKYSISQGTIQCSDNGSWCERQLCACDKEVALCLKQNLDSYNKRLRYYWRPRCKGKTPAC"}, "[5]": {"tested_on": "PGE2 production in rat gastric epithelial cells", "details": "induced by TGF-α and IL-1, rat gastric epithelial cells"}, "[6]": {"target": "T2, porcine pancreatic group IB sPLA2 / M-type receptor (Sus scrofa, UniProt P00592)", "T2 construct": "host or cells: mouse cells expressing the M-type receptor", "T2 sequence (P00592 23-146)": "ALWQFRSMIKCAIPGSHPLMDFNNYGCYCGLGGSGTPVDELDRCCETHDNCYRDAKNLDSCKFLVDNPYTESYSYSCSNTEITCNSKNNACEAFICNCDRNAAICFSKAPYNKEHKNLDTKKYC", "details": "mouse cells expressing the M-type receptor; read-out: IC50, block of binding of porcine pancreatic group IB sPLA2 to M-type receptor"}, "[7]": {"target": "group X sPLA2 / M-type receptor", "details": "mouse cells expressing the M-type receptor; read-out: IC50, block of binding of group X sPLA2 to M-type receptor"}, "septic shock": {"tested_on": "septic shock", "details": "LPS injection, wild-type mice"}},
  "data": [
    {"smiles": "O=C(O)CC[C@@H](Cc1ccc(OCc2ccccc2)cc1)NC(=O)CCCCCCc1ccccc1", "note": "[5-(4-benzyloxyphenyl)-4s-(7-phenylheptanoylamino)-pentanoic acid]", "values": [
      {"measurement": "protection from colitis", "setting": "colitis", "result": "protected rats"},
      {"measurement": "protection of intestine from ischemia and reperfusion injury", "setting": "[1]", "result": "preserved rats intestine from injury"}
    ]},
    {"smiles": "CCc1c(CC(N)=O)c2cc(OCCCP(=O)(O)O)ccc2n1Cc1ccccc1", "note": "[LY311727]", "values": [
      {"measurement": "inhibition of sPLA2 activity induced by lipopolysaccharides", "setting": "sPLA2 activity", "result": "could also inhibit"},
      {"measurement": "inhibition of release of thromboxane A2", "setting": "[2]", "result": "able to inhibit"},
      {"measurement": "PLA2 catalytic activity in blood", "setting": "hGIIA [3]", "result": "loss of PLA2 catalytic activity in blood"},
      {"measurement": "inflammation-related symptoms", "setting": "hyperalgesia", "result": "attenuated all the inflammation-related symptoms observed"},
      {"measurement": "mortality", "setting": "toxoplasmosis", "result": "earlier mortality"}
    ]},
    {"smiles": "CCc1c(C(=O)C(N)=O)c2c(OCC(=O)OC)cccc2n1Cc1ccccc1", "note": "[LY333013]", "values": [
      {"measurement": "tolerability", "setting": "asthma; in these patients", "result": "well tolerated"},
      {"measurement": "benefit on inhaled allergen challenge", "setting": "asthma; subjects with asthma", "result": "failed to show any benefit"},
      {"measurement": "protection from colitis", "setting": "colitis", "result": "protected rats"},
      {"measurement": "effect on rheumatoid arthritis pathology, intravenous", "setting": "rheumatoid arthritis; administered intravenously", "result": "positive impacts on the pathology"},
      {"measurement": "effect on rheumatoid arthritis pathology, oral", "setting": "rheumatoid arthritis; orally distributed, patients with rheumatoid arthritis", "result": "significant reduction of the pathology during the first week of trial, but the benefits were lost thereafter"}
    ]},
    {"smiles": "Cc1c(C(=O)C(N)=O)c2c(OCC(=O)O)cccc2n1Cc1ccccc1-c1ccccc1", "note": "[Me-indoxam]", "values": [
      {"measurement": "potency to inhibit hGIIA relative to LY311727", "setting": "hGIIA [4]", "result": "about 20 fold"}
    ]},
    {"smiles": "CCc1c(C(=O)C(N)=O)c2c(OCC(=O)[O-])cccc2n1Cc1ccccc1.[Na+]", "note": "[S-5920/LY315920Na]", "values": [
      {"measurement": "clinical outcome versus placebo", "setting": "sepsis and organ failure", "result": "no significant differences"}
    ]},
    {"smiles": "CCCCCCCCCCCC(=O)c1c(O)c(C(=O)CCCCCCCCCCC)c(O)c(C2CC(c3ccc(O)cc3)Oc3cc(O)ccc32)c1O", "note": "(stereo not shown) [YM-26734]", "values": [
      {"measurement": "inhibition of mGV", "setting": "mGV", "result": "potent inhibitor"},
      {"measurement": "ear edema", "setting": "ear edema", "result": "reduced"},
      {"measurement": "inhibition of mGX", "setting": "mGX", "result": "potent inhibitor"},
      {"measurement": "inhibition of mGIIE", "setting": "mGIIE", "result": "potent inhibitor"},
      {"measurement": "accumulation of exudate fluid and leukocytes", "setting": "pleurisy", "result": "significantly decreased"},
      {"measurement": "inhibition of mGIIA", "setting": "mGIIA", "result": "potent inhibitor"},
      {"measurement": "inhibition of mGIID", "setting": "mGIID", "result": "potent inhibitor"}
    ]},
    {"smiles": "CCc1c(C(=O)C(N)=O)c2c(OCC(=O)O)cccn2c1Cc1ccccc1-c1ccccc1", "note": "[indoxam]", "values": [
      {"measurement": "PGE2 production", "setting": "[5]", "result": "inhibited"},
      {"measurement": "IC50", "setting": "[6]", "result": 130, "unit": "nM"},
      {"measurement": "IC50", "setting": "[7]", "result": 900, "unit": "nM"},
      {"measurement": "septic shock", "setting": "septic shock", "result": "attenuated"}
    ]}
  ]
}
